One series addresses thrombin (Homo sapiens, UniProt P00734). As to the kind of experiment: Function and configuration of thrombin, electrophoresis. The format is biochemical. Also on record: thrombin (Behlinger Manheim-Yamanouchi Co.) was investigated by electrophoresis; purchased Behlinger Manheim-Yamanouchi Co. Conditions: after treatment with Yoshixol 4 μl. The protocol:
Each physiological effect of trypsin (Wakou Jyunyaku Ltd.) and thrombin (Behlinger Manheim-Yamanouchi Co.) was investigated by electrophoresis. When trypsin was added to bovine albumin (Sigma Co. Saint Louis, Mo., USA) or myoglobin (Sigma Co. Saint Louis, Mo., USA), each primary structure of proteins which consist of albumin was altered by proteolytic action of trypsin. In addition, when thrombin was added to human fibrinogen (Behlinger Manheim-Yamanouchi Co.), a primary structure of proteins which consists of fibrinogen was not found.

The nature of series [1]: Softening and flexibility effect on skin. Also on record: species or system rabbit and dog. To be noted: histology, hematoxylin eosin staining. The protocol: In order to investigate changes of softening and flexibility on skin from rabbit and dog, each skin was is dipped in 5 ml of physiological saline with 10 μl of the test solution. This test solution was prepared from 88 ml of physiological saline with 2 ml of polyoxyethylene (20) sorbitan monoolate 1 (Wakou Jyunyaku Co.) that is identical to Tween80 (ICI Co.) as the basal solution of control. As the treated solution, 10 ml of Yoshixol was added in the basal solution. […] Surgical stitching by the needle was easily to be inserted and transfixed in the skin. […] And, the sample treated with Yoshixol was observed as the preparation which was made from a fresher sample by hematoxylin eosin staining in contrast to the skin sample treated with the test solution of control. Moreover, a similar observation on histological pictures of each sample was obtained even when each skin sample was thawed at 20° C. after storaging each sample at 4° C. in the refrigeration for one month.

The target in the next series is T1, human fibrinogen (Homo sapiens, UniProt P02671+P02675+P02679).
T1 sequence (P02671 20-629 limits assumed): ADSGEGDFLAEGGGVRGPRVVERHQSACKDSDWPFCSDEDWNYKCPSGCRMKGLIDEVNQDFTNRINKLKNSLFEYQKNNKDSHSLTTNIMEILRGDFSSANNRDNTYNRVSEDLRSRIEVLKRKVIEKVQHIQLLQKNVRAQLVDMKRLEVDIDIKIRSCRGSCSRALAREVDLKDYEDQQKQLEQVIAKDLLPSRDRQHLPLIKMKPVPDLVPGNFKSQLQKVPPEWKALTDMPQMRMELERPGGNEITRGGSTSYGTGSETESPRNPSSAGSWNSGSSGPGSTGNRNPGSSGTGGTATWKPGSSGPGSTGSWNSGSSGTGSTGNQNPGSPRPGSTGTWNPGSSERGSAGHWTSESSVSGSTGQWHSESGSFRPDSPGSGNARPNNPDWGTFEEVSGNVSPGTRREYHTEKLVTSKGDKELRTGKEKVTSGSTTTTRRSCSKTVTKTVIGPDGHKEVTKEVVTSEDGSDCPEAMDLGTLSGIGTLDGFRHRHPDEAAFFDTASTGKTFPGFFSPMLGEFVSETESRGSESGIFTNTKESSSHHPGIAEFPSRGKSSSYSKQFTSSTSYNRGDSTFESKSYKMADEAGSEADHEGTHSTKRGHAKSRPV
T1 sequence (P02675 31-491): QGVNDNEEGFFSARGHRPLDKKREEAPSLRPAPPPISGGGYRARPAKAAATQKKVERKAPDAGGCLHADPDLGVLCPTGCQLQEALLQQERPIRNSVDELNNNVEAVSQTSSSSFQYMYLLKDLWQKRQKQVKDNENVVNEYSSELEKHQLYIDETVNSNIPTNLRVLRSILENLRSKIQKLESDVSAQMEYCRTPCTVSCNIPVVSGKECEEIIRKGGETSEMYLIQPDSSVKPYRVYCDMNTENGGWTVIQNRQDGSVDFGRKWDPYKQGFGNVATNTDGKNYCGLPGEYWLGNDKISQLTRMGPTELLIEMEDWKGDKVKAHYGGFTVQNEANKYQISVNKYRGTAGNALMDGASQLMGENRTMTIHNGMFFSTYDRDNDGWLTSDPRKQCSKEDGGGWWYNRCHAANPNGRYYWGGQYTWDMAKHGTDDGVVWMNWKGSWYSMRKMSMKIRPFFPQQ
T1 sequence (P02679 27-433 limits assumed): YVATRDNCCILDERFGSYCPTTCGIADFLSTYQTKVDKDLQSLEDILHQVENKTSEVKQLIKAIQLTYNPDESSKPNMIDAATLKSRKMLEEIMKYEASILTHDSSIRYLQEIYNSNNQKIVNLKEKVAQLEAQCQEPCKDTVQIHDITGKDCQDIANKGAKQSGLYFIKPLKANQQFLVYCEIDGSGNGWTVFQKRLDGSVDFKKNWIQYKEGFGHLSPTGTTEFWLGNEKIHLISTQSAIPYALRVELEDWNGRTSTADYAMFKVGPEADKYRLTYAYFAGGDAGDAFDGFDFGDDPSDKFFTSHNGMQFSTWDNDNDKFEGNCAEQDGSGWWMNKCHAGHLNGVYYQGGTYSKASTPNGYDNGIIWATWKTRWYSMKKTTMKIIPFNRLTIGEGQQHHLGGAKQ
As to the kind of experiment: Composition of amino acids in fibrinogen. The class given is biochemical. Conditions: Yoshixol 4 μl. The protocol:
Changes in composition of amino acids were analyzed by use of 1 ml of human blood serum, 1 ml of human fibrinogen (concentration of 160 mg/dl), 1 ml of human thrombin before and after treatment with Yoshixol (4 μl). The total amino acids in the human blood serum which was treated with Yoshixol decreased by 41%. And, ratio of each composition was altered after the treatment so that as an example the concentration of phosphoserine increased about 20 times which level was from 7.2 picomole to 164.8 picomole.

The values that follow come from patent publication US6710090B2, “Inhibitory or blocking agents of molecular generating and/or inducing functions” (priority 1994, dated 2004).

For `C=C1CC(C)(C)C=CC1=O` [Yoshixol, 4,4-dimethyl-6-methylene-2-cyclohexen-1-one], on thrombin, the “physiological function of thrombin to fibrinogen” value is recorded as “did not occur” and the “primary structure of thrombin (electrophoresis)” value was “did not show any electrophoretic changes”. For the same compound, the “structure damages of each skin” value in series [1] is recorded as “did not found histologically”. The “concentration of the total amino acids in fibrinogen” value at human fibrinogen (1 ml human fibrinogen 160 mg/dl) is listed as “did not change”. Also, the “increase of concentration of cystathione in fibrinogen” value on human fibrinogen is “more than 5 times”. For the same compound, the “glutamic acid and hydroxyl serine in fibrinogen” value on human fibrinogen (existed before treatment) was “disappeared”.
